Results reported in ChEMBL document CHEMBL5634092, “Design, synthesis, and biological evaluation of novel HDAC/CD13 dual inhibitors for the treatment of cancer” (Eur J Med Chem, 2023).

Tests used:
Aminopeptidase N [1] = target: T1, Aminopeptidase N (Sus scrofa, UniProt P15145); assay: Inhibition of porcine kidney CD13 using L-leucine-p-nitroanilide as substrate incubated for 30 mins by microplate reader analysis
T1 sequence (P15145 whole entry): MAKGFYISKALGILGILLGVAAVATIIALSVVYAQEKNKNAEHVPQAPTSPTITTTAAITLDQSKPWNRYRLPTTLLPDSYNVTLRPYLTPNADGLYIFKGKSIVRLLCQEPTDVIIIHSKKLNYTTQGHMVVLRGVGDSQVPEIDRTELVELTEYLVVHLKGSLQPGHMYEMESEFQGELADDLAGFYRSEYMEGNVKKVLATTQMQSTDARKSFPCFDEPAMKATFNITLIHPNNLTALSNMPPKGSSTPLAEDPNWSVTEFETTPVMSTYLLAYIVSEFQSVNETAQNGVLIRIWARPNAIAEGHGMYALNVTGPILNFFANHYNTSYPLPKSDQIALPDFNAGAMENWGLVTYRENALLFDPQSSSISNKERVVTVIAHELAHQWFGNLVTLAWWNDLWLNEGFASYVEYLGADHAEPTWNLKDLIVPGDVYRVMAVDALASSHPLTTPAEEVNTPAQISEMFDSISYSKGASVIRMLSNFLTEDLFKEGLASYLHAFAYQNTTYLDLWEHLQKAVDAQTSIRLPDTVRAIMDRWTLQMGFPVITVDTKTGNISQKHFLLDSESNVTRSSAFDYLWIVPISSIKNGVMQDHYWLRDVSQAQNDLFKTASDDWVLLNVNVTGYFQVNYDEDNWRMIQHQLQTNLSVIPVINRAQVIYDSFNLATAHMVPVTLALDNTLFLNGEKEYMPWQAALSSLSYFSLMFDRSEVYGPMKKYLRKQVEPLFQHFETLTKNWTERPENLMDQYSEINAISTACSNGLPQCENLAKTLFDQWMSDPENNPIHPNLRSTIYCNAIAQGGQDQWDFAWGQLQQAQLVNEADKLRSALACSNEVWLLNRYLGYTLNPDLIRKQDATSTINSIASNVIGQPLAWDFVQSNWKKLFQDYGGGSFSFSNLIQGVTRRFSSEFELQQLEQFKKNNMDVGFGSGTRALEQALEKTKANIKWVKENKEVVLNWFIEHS

Aminopeptidase N [2] = target: Aminopeptidase N (Homo sapiens, UniProt P15144); assay: Inhibition of human CD13 using L-leucine-p-nitroanilide as substrate incubated for 30 mins by microplate reader analysis
Chain of Aminopeptidase N (Homo sapiens, UniProt P15144) (P15144 whole entry): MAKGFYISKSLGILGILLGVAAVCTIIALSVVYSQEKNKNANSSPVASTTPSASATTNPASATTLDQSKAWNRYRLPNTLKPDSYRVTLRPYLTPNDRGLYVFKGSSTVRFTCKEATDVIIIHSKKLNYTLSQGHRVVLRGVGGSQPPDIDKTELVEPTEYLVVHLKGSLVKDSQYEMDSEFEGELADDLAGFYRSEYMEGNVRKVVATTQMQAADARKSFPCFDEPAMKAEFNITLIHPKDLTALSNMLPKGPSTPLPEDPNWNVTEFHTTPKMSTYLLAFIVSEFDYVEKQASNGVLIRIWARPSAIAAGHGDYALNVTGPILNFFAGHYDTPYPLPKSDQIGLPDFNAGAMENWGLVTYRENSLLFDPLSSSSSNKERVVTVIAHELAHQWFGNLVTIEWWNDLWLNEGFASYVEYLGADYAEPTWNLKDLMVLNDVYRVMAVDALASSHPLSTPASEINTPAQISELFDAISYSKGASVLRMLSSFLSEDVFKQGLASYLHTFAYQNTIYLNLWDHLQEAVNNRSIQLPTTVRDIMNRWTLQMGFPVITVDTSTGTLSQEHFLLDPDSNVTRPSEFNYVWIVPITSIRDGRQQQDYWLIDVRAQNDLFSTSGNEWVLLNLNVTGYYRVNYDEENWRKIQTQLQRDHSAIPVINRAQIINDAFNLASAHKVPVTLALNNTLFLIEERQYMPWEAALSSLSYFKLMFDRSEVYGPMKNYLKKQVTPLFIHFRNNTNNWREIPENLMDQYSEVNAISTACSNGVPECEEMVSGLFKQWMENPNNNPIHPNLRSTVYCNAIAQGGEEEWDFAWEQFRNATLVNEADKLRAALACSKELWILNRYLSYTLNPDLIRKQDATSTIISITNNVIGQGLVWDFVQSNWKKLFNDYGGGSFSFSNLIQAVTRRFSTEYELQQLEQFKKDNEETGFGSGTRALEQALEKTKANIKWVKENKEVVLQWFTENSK

Histone deacetylase 5 = Histone deacetylase 5 (Homo sapiens, UniProt Q9UQL6); assay: Inhibition of human HDAC5 using Boc-Lys (tri-fluoroacetyl)-AMC as substrate incubated for 1 hr followed by substrate addition and further incubated for 2 hrs by fluorescence assay
Chain of Histone deacetylase 5 (Q9UQL6 whole entry): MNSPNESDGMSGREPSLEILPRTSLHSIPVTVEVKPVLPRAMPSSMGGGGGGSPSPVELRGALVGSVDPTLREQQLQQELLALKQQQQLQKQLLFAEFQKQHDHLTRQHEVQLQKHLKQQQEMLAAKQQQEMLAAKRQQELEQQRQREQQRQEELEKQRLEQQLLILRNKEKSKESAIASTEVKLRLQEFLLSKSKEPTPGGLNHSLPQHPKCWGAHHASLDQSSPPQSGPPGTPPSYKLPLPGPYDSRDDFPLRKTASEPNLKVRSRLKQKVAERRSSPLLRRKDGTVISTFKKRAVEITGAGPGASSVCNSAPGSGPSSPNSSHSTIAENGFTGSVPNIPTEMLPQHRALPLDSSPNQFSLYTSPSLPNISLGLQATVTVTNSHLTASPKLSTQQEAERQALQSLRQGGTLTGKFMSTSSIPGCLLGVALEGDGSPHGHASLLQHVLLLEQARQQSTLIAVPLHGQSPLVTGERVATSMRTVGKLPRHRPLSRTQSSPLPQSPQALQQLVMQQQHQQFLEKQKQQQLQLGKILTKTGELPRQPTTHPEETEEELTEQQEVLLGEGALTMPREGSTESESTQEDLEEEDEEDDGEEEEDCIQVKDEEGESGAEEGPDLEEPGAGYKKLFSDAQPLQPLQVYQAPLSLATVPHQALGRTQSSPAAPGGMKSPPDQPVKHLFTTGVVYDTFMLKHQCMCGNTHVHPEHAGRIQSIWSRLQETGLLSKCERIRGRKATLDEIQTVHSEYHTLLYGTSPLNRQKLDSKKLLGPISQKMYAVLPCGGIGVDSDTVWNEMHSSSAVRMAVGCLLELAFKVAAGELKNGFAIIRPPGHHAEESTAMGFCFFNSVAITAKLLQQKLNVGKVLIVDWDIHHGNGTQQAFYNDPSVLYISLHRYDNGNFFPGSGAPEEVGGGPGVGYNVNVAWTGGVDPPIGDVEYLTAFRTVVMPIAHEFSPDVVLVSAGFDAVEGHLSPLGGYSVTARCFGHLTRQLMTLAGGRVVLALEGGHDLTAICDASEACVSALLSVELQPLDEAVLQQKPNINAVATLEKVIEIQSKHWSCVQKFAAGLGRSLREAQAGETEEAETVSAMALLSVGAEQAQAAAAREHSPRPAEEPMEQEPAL

Histone deacetylase 8 = target: T2, Histone deacetylase 8 (Homo sapiens, UniProt Q9BY41); assay: Inhibition of human HDAC8 using Boc-Lys (tri-fluoroacetyl)-AMC as substrate incubated for 1 hr followed by substrate addition and further incubated for 2 hrs by fluorescence assay
T2 sequence (Q9BY41 whole entry): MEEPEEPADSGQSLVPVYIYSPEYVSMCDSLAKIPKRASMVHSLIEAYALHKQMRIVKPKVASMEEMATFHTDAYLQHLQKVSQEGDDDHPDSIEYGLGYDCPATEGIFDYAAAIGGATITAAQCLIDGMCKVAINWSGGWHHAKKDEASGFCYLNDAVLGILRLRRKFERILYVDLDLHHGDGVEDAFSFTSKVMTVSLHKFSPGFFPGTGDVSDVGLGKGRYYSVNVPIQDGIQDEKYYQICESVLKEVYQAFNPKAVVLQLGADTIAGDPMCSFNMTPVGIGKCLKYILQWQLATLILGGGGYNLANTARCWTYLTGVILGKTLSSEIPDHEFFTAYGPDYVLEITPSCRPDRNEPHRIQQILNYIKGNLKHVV

Histone deacetylase 9 = Histone deacetylase 9 (Homo sapiens, UniProt Q9UKV0); assay: Inhibition of human HDAC9 using Boc-Lys (tri-fluoroacetyl)-AMC as substrate incubated for 1 hr followed by substrate addition and further incubated for 2 hrs by fluorescence assay
Chain of Histone deacetylase 9 (Q9UKV0 whole entry): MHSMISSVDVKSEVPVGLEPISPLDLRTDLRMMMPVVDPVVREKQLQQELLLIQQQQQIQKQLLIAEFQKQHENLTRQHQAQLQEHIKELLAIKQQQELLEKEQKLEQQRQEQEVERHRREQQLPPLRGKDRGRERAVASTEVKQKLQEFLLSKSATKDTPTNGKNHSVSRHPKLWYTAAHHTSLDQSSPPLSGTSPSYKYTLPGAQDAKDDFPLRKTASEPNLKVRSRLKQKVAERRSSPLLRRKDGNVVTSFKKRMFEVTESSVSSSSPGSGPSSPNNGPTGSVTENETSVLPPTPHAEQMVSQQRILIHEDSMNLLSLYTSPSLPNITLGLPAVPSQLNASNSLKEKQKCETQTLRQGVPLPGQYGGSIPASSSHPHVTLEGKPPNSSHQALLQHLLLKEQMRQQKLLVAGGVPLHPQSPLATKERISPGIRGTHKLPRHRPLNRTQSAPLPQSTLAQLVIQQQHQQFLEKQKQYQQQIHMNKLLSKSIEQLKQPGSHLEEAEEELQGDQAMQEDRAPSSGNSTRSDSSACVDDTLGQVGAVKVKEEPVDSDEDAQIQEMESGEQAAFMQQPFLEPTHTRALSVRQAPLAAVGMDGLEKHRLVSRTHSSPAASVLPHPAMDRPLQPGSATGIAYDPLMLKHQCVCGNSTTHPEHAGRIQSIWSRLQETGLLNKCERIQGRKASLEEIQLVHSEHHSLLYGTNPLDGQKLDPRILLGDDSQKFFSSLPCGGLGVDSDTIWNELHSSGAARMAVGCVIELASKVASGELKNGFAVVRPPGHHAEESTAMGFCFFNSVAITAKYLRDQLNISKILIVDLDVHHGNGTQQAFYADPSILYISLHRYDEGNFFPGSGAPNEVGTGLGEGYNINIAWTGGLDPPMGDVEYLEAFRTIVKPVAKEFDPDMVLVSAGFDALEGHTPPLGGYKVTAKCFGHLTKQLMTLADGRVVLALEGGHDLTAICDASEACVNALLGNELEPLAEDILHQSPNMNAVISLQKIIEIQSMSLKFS

[3] = target: T3, Polyamine deacetylase HDAC10 (Homo sapiens, UniProt Q969S8); assay: Inhibition of human HDAC10 using Boc-Lys (tri-fluoroacetyl)-AMC as substrate incubated for 1 hr followed by substrate addition and further incubated for 2 hrs by fluorescence assay
T3 sequence (Q969S8 whole entry): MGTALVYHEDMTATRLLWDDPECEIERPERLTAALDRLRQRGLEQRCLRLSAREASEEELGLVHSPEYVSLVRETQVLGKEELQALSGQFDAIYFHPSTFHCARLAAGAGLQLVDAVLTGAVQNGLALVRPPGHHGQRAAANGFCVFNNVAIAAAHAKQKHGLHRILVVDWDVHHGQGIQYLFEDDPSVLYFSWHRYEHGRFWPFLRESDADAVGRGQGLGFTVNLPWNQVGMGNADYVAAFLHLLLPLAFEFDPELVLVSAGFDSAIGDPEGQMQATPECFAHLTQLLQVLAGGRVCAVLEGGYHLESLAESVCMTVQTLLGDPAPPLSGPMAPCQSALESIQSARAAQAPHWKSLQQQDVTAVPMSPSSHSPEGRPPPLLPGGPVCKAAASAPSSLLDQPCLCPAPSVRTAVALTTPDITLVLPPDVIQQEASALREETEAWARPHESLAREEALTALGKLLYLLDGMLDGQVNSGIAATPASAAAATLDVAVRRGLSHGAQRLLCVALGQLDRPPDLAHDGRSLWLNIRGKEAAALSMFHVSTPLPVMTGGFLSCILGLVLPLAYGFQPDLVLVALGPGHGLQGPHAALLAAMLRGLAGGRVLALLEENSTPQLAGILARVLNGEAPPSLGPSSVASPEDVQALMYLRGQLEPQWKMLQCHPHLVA

Histone deacetylase 11 = target: T4, Histone deacetylase 11 (Homo sapiens, UniProt Q96DB2); assay: Inhibition of human HDAC11 using Boc-Lys (tri-fluoroacetyl)-AMC as substrate incubated for 1 hr followed by substrate addition and further incubated for 2 hrs by fluorescence assay
T4 sequence (Q96DB2 whole entry): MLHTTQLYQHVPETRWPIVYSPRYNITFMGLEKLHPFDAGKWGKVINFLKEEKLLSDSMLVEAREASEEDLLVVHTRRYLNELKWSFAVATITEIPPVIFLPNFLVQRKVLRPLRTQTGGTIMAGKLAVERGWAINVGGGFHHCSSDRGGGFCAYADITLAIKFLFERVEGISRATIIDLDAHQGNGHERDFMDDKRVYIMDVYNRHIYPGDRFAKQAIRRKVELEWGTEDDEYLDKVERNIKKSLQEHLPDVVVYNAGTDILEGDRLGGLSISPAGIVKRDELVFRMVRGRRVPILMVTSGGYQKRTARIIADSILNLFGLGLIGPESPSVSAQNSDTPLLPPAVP

[4] = Stability of compound in artificial gastric juice at 0.4 mg/mL measured after 24 hrs by HPLC analysis; type: ADME; conditions: simulated gi fluid
[5] = Stability of compound in artificial intestinal juice at 0.4 mg/mL measured after 24 hrs by HPLC analysis; type: ADME; conditions: simulated gi fluid

IC50 (Aminopeptidase N [1]): 530 nM
IC50 (Aminopeptidase N [2]): 340 nM
IC50 (Histone deacetylase 5): > 10000 nM
IC50 (Histone deacetylase 8): 4650 nM
IC50 (Histone deacetylase 9): > 10000 nM
IC50 [3]: > 10000 nM
IC50 (Histone deacetylase 11): 1240 nM
Stability [4]: Stable
Stability [5]: Stable
SMILES: CCCNNC(=O)c1ccc(CNC(=O)[C@H](CC(C)C)NC(=O)[C@@H](O)[C@H](N)Cc2ccccc2)cc1.Cl
